# Assay results as given in US11174251B2, “Compositions and methods for inhibition of the JAK pathway” (Rigel Pharmaceuticals, Inc., priority 2010, dated 2021).
# Structures can show the parent of a compound that is named as a salt.
# Target: T1, JAK3 (Homo sapiens, UniProt P52333)
# T1 construct: The Ramos B-cell line was acquired from ATCC (ATCC Catalog No. CRL-1596); host or cells: Ramos B-cell line (human)
# T1 sequence (P52333 1-1124): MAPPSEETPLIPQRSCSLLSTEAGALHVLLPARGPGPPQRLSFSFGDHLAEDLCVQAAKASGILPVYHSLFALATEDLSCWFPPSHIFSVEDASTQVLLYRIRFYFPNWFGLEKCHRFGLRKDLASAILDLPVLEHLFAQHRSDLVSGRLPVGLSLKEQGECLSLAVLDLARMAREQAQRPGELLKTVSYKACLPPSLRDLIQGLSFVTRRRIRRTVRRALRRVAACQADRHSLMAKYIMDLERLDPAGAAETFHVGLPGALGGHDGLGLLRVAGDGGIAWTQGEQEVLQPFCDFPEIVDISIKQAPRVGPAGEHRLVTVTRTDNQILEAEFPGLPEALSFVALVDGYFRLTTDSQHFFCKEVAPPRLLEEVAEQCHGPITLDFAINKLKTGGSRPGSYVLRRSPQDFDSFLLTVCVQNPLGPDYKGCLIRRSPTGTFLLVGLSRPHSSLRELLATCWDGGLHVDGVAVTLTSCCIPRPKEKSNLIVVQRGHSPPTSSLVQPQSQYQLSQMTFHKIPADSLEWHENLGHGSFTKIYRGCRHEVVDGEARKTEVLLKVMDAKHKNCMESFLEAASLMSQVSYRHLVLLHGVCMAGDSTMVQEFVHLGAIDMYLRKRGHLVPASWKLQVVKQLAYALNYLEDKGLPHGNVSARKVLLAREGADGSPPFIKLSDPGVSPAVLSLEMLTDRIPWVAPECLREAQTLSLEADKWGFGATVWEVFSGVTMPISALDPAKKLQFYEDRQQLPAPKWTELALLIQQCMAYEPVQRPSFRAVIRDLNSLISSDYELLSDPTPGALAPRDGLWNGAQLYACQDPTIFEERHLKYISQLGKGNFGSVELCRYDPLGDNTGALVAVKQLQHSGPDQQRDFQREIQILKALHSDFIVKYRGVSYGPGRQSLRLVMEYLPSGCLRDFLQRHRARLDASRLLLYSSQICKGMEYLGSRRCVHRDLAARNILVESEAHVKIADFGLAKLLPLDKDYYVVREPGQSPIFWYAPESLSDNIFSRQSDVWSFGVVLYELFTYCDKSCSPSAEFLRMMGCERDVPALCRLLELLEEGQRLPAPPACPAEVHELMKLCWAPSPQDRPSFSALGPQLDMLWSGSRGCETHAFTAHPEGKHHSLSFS
# Experiment: Assay for CD23 expression on Ramos B-cells stimulated by IL-4 (Table IV: ability to inhibit JAK3 activity)
# Type: cell-based
# Settings: tested under conditions described in Example 3 (so in the source)
# How it was run: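 Human Ramos B cells in RPMI with 5% serum, pre-incubated 1 h at 37 °C with compound or DMSO, then stimulated with IL-4 (final 50 units/mL) for 20–24 h. Surface CD23 upregulation measured by FACS staining as readout of JAK1/JAK3–Stat-6 signalling.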
row,IC50 [µM],Structure (SMILES)
1,< 0.5,"COc1cc(Nc2ncc(F)c(Nc3ccc4oc(=O)[nH]c4c3)n2)cc(F)c1C [Compound I-121, 5-(5-fluoro-2-(3-fluoro-5-methoxy-4-methylphenylamino)pyrimidin-4-ylamino)benzo[d]oxazol-2(3H)-one trifluoroacetate salt]"
2,< 0.5,"COc1cc(Nc2ncc(F)c(Nc3ccc4oc(=O)[nH]c4c3)n2)cc(C)c1OC [Compound I-182, 5-(2-(3,4-dimethoxy-5-methylphenylamino)-5-fluoropyrimidin-4-ylamino)benzo[d]oxazol-2(3H)-one trifluoroacetate salt]"
3,< 0.5,"COc1ccc(Nc2ncc(F)c(Nc3ccc4oc(=O)[nH]c4c3)n2)cc1 [Compound I-196, 5-(2-(4-methoxyphenylamino)-5-fluoropyrimidin-4-ylamino)benzo[d]oxazol-2(3H)-one formate salt]"
4,< 0.5,"Cc1cnc(Nc2ccc3c(c2)C(=O)OC3)nc1Nc1ccc2oc(=O)[nH]c2c1 [II-8, 5-methyl-N4-(2-oxo-2,3-dihydro-1,3-benzoxazol-5-yl)-N2-(1-oxo-1,3-dihydro-isobenzofuran-6-yl)-2,4-pyrimidinediamine]"
5,< 0.5,"O=c1[nH]c2cc(Nc3nc(Nc4cc(F)cc(N5CCOCC5)c4)ncc3F)ccc2o1 [Compound I-169, 5-(2-(3-fluoro-5-morpholinophenylamino)-5-fluoropyrimidin-4-ylamino)benzo[d]oxazol-2(3H)-one ditrifluoroacetate salt]"
6,< 0.5,"CN1C/C=C\Cc2ccc(Nc3ncc(F)c(Nc4ccc5oc(=O)[nH]c5c4)n3)cc2C1=O [II-4, (Z)-5-(5-fluoro-2-(2-methyl-1-oxo-1,2,3,6-tetrahydrobenzo[c]azocin-9-ylamino)pyrimidin-4-ylamino)benzo[d]oxazol-2(3H)-one formate salt]"
7,< 0.5,"Cc1cc(Nc2nc(Nc3ccc(F)c(S(C)(=O)=O)c3)ncc2F)cc2[nH]c(=O)oc12 [Compound I-173, 5-(2-(4-fluoro-3-(methylsulfonyl)phenylamino)-5-fluoropyrimidin-4-ylamino)-7-methylbenzo[d]oxazol-2(3H)-one trifluoroacetate salt]"
8,< 0.5,"COCc1c(C)cc(Nc2ncc(C)c(Nc3ccc4oc(=O)[nH]c4c3)n2)cc1C [Compound I-143, N2-(3,5-dimethyl-4-methoxymethyl)phenyl-5-methyl-N4-(2-oxo-2,3-dihydro-1,3-benzoxazol-5-yl)-2,4-pyrimidinediamine]"
9,> 10,"Cc1cc(Nc2ncc(CN3CCCCC3)c(Nc3ccc4oc(=O)[nH]c4c3)n2)cc(C)c1C [Compound I-99, 5-(2-(3,4,5-trimethylphenylamino)-5-((piperidin-1-yl)methyl)pyrimidin-4-ylamino)benzo[d]oxazol-2(3H)-one]"
10,> 10,"Cc1cnc(Nc2ncc(C)c(Nc3ccc4oc(=O)[nH]c4c3)n2)cc1C [II-14, N2-(4,5-dimethylpyridin-2-yl)-5-methyl-N4-(2-oxo-2,3-dihydro-1,3-benzoxazol-5-yl)-2,4-pyrimidinediamine]"
11,< 0.5,"Cc1cnc(Nc2cc(C)c(F)c(C)c2)nc1Nc1ccc2oc(=O)[nH]c2c1 [Compound I-146, N2-(3,5-dimethyl-4-fluoro)phenyl-5-methyl-N4-(2-oxo-2,3-dihydro-1,3-benzoxazol-5-yl)-2,4-pyrimidinediamine benzenesulfonic acid salt]"
12,0.5 to 5,"COc1cc(Nc2ncc(C)c(Nc3ccc4oc(=O)n(COP(=O)(O)O)c4c3)n2)cc(C)c1C [Compound I-115, Disodium (5-(2-(3-methoxy-4,5-dimethylphenylamino)-5-methylpyrimidin-4-ylamino)-2-oxobenzo[d]oxazol-3(2H)-yl)methyl phosphate]"
13,< 0.5,"COc1cc(Nc2ncc(F)c(Nc3ccc4oc(=O)[nH]c4c3)n2)ccc1C(=O)NC1CCC1 [Compound I-164, N-cyclobutyl-4-(5-fluoro-4-(2-oxo-2,3-dihydrobenzo[d]oxazol-5-ylamino)pyrimidin-2-ylamino)-2-methoxybenzamide formate salt]"
14,< 0.5,"COc1ccc(Nc2ncc(F)c(Nc3cc(C)c4oc(=O)[nH]c4c3)n2)cc1C [Compound I-178, 5-(2-(4-methoxy-3-methylphenylamino)-5-fluoropyrimidin-4-ylamino)-7-methylbenzo[d]oxazol-2(3H)-one trifluoroacetate salt]"

# More lines, now with the values behind:
row,Structure (SMILES),IC50 [µM]
1,"Cc1cnc(Nc2cc(C)c(C)c(C)c2)nc1Nc1cc(/C=C/CCl)c2oc(=O)[nH]c2c1 [Compound I-96, 5-(2-(3,4,5-trimethylphenylamino)-5-methylpyrimidin-4-ylamino)-7-((E)-3-chloroprop-1-enyl)benzo[d]oxazol-2(3H)-one]",0.5 to 5
2,"Cc1cc(C)cc(Nc2ncc(Cl)c(Nc3ccc4oc(=O)[nH]c4c3)n2)c1 [Compound I-10, 5-(5-chloro-2-(3,5-dimethylphenylamino)pyrimidin-4-ylamino)benzo[d]oxazol-2(3H)-one trifluoroacetate salt]",< 0.5
3,"Cc1ccc(Nc2ncc(Cl)c(Nc3ccc4oc(=O)[nH]c4c3)n2)cc1C [Compound I-5, 5-(5-chloro-2-(3,4-dimethylphenylamino)pyrimidin-4-ylamino)benzo[d]oxazol-2(3H)-one trifluoroacetate salt]",< 0.5
4,"COc1cc(Nc2ncc(Cl)c(Nc3ccc4oc(=O)[nH]c4c3)n2)ccc1C [Compound I-32, 5-(5-chloro-2-(3-methoxy-4-methylphenylamino)pyrimidin-4-ylamino)benzo[d]oxazol-2(3H)-one trifluoroacetate salt]",< 0.5
5,"O=c1[nH]c2cc(Nc3nc(Nc4cc(F)cc(Cl)c4)ncc3Cl)ccc2o1 [Compound I-8, 5-(5-chloro-2-(3-chloro-5-fluorophenylamino)pyrimidin-4-ylamino)benzo[d]oxazol-2(3H)-one formate salt]",< 0.5
6,"O=c1[nH]c2cc(Nc3nc(Nc4cc(F)cc(F)c4)ncc3Cl)ccc2o1 [Compound I-14, 5-(5-chloro-2-(3,5-difluorophenylamino)pyrimidin-4-ylamino)benzo[d]oxazol-2(3H)-one trifluoroacetate salt]",< 0.5
7,"COCCOc1ccc(Nc2ncc(Cl)c(Nc3ccc4oc(=O)[nH]c4c3)n2)c(F)c1OCCOC [Compound I-78, 5-(5-chloro-2-(2-fluoro-3,4-bis(2-methoxyethoxy)phenylamino)pyrimidin-4-ylamino)benzo[d]oxazol-2(3H)-one trifluoroacetate salt]",< 0.5
8,"COC(=O)c1cnc(Nc2cc(C)c(F)c(C)c2)nc1Nc1ccc2oc(=O)[nH]c2c1 [Compound I-74, methyl 2-(4-fluoro-3,5-dimethylphenylamino)-4-(2-oxo-2,3-dihydrobenzo[d]oxazol-5-ylamino)pyrimidine-5-carboxylate trifluoroacetate salt]",5 to 10
9,"COc1cccc(Nc2ncc(C)c(Nc3ccc4oc(=O)[nH]c4c3)n2)c1F [Compound I-19, 5-[2-(2-Fluoro-3-methoxy-phenylamino)-5-methyl-pyrimidin-4-ylamino]-3H-benzooxazol-2-one]",< 0.5
10,"COc1ccc(Nc2ncc(Cl)c(Nc3ccc4oc(=O)[nH]c4c3)n2)c(F)c1OC [Compound I-51, 5-(5-chloro-2-(2-fluoro-3,4-dimethoxyphenylamino)pyrimidin-4-ylamino)benzo[d]oxazol-2(3H)-one trifluoroacetate salt]",< 0.5
11,"O=c1[nH]c2cc(Nc3nc(Nc4ccc5ccccc5c4)ncc3[N+](=O)[O-])ccc2o1 [II-6, 5-(2-(naphthalen-2-ylamino)-5-nitropyrimidin-4-ylamino)benzo[d]oxazol-2(3H)-one trifluoroacetate salt]",> 10
12,"N#Cc1cccc(Nc2ncc(Cl)c(Nc3ccc4oc(=O)[nH]c4c3)n2)c1F [Compound I-73, 3-(5-chloro-4-(2-oxo-2,3-dihydrobenzo[d]oxazol-5-ylamino)pyrimidin-2-ylamino)-2-fluorobenzonitrile trifluoroacetate salt]",< 0.5
13,"C#Cc1cnc(Nc2cc(C)c(C)c(C)c2)nc1Nc1ccc2oc(=O)[nH]c2c1 [Compound I-18, 5-[5-Ethynyl-2-(3,4,5-trimethyl-phenylamino)-pyrimidin-4-ylamino]-3H-benzooxazol-2-one trifluoroacetate salt]",< 0.5
